Source: patent US8163756B2 (priority 2004, dated 2012)

biological target: B-Raf(V599E) kinase (Homo sapiens, UniProt P15056, V600E); assay: B-Raf(V599E) kinase assay B1 (construct 1, MEK1 substrate, coupled spectrophotometric); format: biochemical; conditions: not given
Experimental: The test compounds were incubated with the reaction mixtureat 30° C. for 2 h. […] The reaction rate was calculated using the […] time frame. […] IC50 values were calculated from a series of percent inhibition values determined at a range of inhibitor concentrations using software routines as implemented in the GraphPad Prism software package.

Sequence of B-Raf(V599E) kinase (P15056 with tags, fused parts or gaps V600E): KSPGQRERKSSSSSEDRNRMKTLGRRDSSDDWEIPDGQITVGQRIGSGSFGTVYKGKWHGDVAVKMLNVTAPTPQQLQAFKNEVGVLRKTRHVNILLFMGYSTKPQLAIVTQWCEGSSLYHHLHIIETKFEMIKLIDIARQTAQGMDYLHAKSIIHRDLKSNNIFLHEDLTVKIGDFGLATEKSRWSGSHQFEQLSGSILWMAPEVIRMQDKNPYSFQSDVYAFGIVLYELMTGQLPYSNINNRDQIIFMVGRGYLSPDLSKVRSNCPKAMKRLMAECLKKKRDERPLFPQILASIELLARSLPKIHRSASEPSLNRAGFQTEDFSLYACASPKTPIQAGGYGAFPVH

In order of rising IC50:
1. CC(C)(C)c1cc(NC(=O)Nc2cccc(F)c2F)n(-c2cc(CC(N)=O)c3ccccc3c2)n1 [Example 90, 1-(1-(4-(2-amino-2-oxoethyl)naphthalen-2-yl)-3-t-butyl-1H-pyrazol-5-yl)-3-(2,3-difluorophenyl)urea]  3.9 nM
2. CC(C)(C)c1cc(NC(=O)Nc2cccc(F)c2F)n(-c2ccc3[nH]c(=O)ccc3c2)n1 [Example 329, 1-(3-t-butyl-1-(2-oxo-1,2-dihydroquinolin-6-yl)-1H-pyrazol-5-yl)-3-(2,3-difluorophenyl)urea]  4.2 nM
3. CC(C)(C)c1cc(NC(=O)Nc2ccc(F)cc2F)n(-c2ccc3[nH]c(=O)ccc3c2)n1 [Example 332, 1-(3-t-butyl-1-(2-oxo-1,2-dihydroquinolin-6-yl)-1H-pyrazol-5-yl)-3-(2,4-difluorophenyl)urea]  4.4 nM
4. CC(C)(C)c1cc(NC(=O)Nc2ccc(F)cc2F)n(-c2ccc3ncccc3c2)n1 [Example 284, 1-(3-t-butyl-1-(quinolin-6-yl)-1H-pyrazol-5-yl)-3-(2,4-difluorophenyl)urea]  8.5 nM
5. CC(C)(C)c1cc(NC(=O)Nc2cccc(Cl)c2Cl)n(-c2cccc(CC(=O)N3CC[C@@H](O)C3)c2)n1 [Example 443, 1-(3-t-butyl-1-(3-(2-((R)-3-hydroxypyrrolidin-1-yl)-2-oxoethyl)phenyl)-1H-pyrazol-5-yl)-3-(2,3-dichlorophenyl)urea]  9 nM
6. CC(C)(C)c1cc(NC(=O)Nc2ccccc2)n(-c2cc(CO)c3ccccc3c2)n1 [Example 290, 1-[3-t-butyl-1-(4-(hydroxymethyl)naphthalen-2-yl)-1H-pyrazol-5-yl]-3-phenylurea]  12 nM
7. CC(C)(C)c1cc(NC(=O)Nc2ccc(Cl)cc2)n(-c2cc(CCO)c3ccccc3c2)n1 [Example 302, 1-{5-t-butyl-2-[4-(2-hydroxyethyl)naphthalen-2-yl]-2H-pyrazol-3-yl}-3-(4-chlorophenyl)urea]  13 nM
8. CC(C)(C)c1cc(NC(=O)Nc2ccc(F)c(F)c2)n(-c2cccc(CC(N)=O)c2)n1 [Example 436, 1-(1-(3-(2-amino-2-oxoethyl)phenyl)-3-t-butyl-1H-pyrazol-5-yl)-3-(3,4-difluorophenyl)urea]  18 nM
9. CC(C)(C)c1cc(NC(=O)Nc2cccc(Cl)c2Cl)n(-c2cccc(C(=O)O)c2)n1 [Example 226, 3-{3-t-butyl-5-[3-(2,3-dichlorophenyl)ureido]-1H-pyrazol-1-yl}benzoic acid]  20 nM
10. CC(C)(C)c1cc(NC(=O)Nc2cccc(F)c2F)n(-c2ccc(CO)cc2)n1 [Example 246, 1-{3-t-butyl-1-[4-(hydroxymethyl)phenyl]-1H-pyrazol-5-yl}-3-(2,3-difluoro-phenyl)urea]  39 nM
11. CC(C)(C)c1cc(NC(=O)Nc2cccc(Cl)c2Cl)n(-c2cc(C(=O)O)c3ccccc3c2)n1 [Example 287, 3-{3-t-butyl-5-(3-(2,3-dichlorophenyl)ureido]-1H-pyrazol-1-yl}-1-naphthoic acid]  41 nM
12. CC(C)(C)c1cc(NC(=O)Nc2ccccc2Cl)n(-c2ccc3c(c2)C(=O)NCC3)n1 [Example 313, 1-(3-t-butyl-1-(1-oxo-1,2,3,4-tetrahydroiso-quinolin-7-yl)-1H-pyrazol-5-yl)-3-(2-chlorophenyl)urea]  46 nM
13. CCOC(=O)c1cc(-n2nc(C(C)(C)C)cc2NC(=O)NC2CCCCC2)cc2ccccc12 [Example 288, ethyl 3-(3-t-butyl-5-(3-cyclohexylureido)-1H-pyrazol-1-yl)-1-naphthoate]  56 nM
14. CC(C)(C)c1cc(NC(=O)NC2CCCCC2)n(-c2cccc(-c3cccnc3)c2)n1 [Example 274, 1-[5-t-butyl-2-(3-pyridin-3-yl-phenyl)-2H-pyrazol-3-yl]-3-cyclohexyl-urea]  134 nM

same assay, conditions: Method B1; read-out: B-Raf Data

NC(=O)Cc1cccc(-n2nc(-c3cccs3)cc2NC(=O)Nc2cccc(Cl)c2Cl)c1 [Example 445, 1-(1-(3-(2-amino-2-oxoethyl)phenyl)-3-(thiophen-2-yl)-1H-pyrazol-5-yl)-3-(2,3-dichlorophenyl)urea] showed an IC50 of 838 nM.
